The molecules below were run against T1, P2X7 receptor (Homo sapiens, UniProt Q99572) (assay: P2X7 calcium mobilization assay, high throughput, antagonist activity (Example 4A)). Conditions: not given.
T1 construct: host or cells: SH-SY5Y
T1 sequence (Q99572 1-595): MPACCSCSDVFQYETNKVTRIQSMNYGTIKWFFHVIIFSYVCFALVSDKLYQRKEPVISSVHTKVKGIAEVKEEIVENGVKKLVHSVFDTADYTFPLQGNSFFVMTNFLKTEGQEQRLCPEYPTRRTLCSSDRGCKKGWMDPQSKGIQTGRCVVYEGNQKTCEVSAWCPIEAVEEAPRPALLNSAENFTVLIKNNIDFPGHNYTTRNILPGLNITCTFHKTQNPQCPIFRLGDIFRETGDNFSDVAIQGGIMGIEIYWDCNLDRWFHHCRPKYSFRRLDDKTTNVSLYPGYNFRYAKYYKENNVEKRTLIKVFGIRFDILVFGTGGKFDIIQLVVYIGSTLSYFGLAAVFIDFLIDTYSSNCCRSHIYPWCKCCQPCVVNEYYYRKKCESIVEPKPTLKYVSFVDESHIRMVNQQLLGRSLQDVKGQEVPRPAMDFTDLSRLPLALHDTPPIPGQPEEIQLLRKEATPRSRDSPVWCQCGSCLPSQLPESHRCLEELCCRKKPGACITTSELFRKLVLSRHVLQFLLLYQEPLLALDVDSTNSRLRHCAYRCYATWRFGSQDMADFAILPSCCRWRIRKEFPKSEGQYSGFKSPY
Format: cell-based
Procedure, shortened: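 FLIPR^TETRA calcium read-out: maximum RFU per well minus average no-agonist control, with agonist wells giving the average positive maximum. Cells seeded at 100,000/well one day ahead, dye-loaded 1 h, rinsed, then exposed to compound for 1 h at room temperature.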

**Q.** Which IC50 does the source give for COCC1CCN(C(=O)c2cn3c(C(=O)NCC45CC6CC(CC(C6)C4)C5)cccc3n2)CC1 [Compound 87, N-(adamantan-1-ylmethyl)-2-{[4-(methoxy-methyl)piperidin-1-yl]carbonyl}imi-dazo[1,2-a]pyridine-5-carboxamide] here?
**A.** The IC50 was under 2000 nM.

**Q.** How did the IC50 turn out when COCCC1CCN(C(=O)c2cn3c(C(=O)NCC45CC6CC(CC(C6)C4)C5)cccc3n2)CC1 [Compound 88, N-(adamantan-1-ylmethyl)-2-{[4-(2-methoxyethyl)piperidin-1-yl]carbonyl}imidazo[1,2-a]pyridine-5-carboxamide] was run?
**A.** Its IC50 is under 2000 nM.

Same assay, conditions: SH-SY5Y cells; 50% decrease in fluorescence response to 80 μM BzATP; read-out: IC50

**Q.** For C[C@@H](O)CNC(=O)c1cn2c(C(=O)NCC34CC5CC(CC(C5)C3)C4)cccc2n1 [Compound 81, 5-N-(adamantan-1-ylmethyl)--[(2R)-2-hydroxy-propyl]imidazo[1,2-a]pyridine-2,5-dicarboxamide], which IC50 is on record?
**A.** Its IC50 is under 2000 nM.

**Q.** C[C@H](O)CNC(=O)c1cn2c(C(=O)NCC34CC5CC(CC(C5)C3)C4)cccc2n1 [Compound 82, 5-N-(adamantan-1-ylmethyl)--[(2S)-2-hydroxy-propyl]imidazo[1,2-a]pyridine-2,5-dicarboxamide] was tested. Which IC50 did it give?
**A.** The IC50 was under 2000 nM.

**Q.** With CCC(O)CNC(=O)c1cn2c(C(=O)NCC34CC5CC(CC(C5)C3)C4)cccc2n1 (stereo not shown) [Compound 83, 5-N-(adamantan-1-ylmethyl)--(2-hydroxy-butyl)imidazo[1,2-a]pyridine-2,5-dicarboxamide] as the molecule, how does the IC50 read?
**A.** Its IC50 is under 2000 nM.

**Q.** For CC(O)CCNC(=O)c1cn2c(C(=O)NCC34CC5CC(CC(C5)C3)C4)cccc2n1 (stereo not shown) [Compound 84, 5-N-(adamantan-1-ylmethyl)--(3-hydroxy-butyl)imidazo[1,2-a]pyridine-2,5-dicarboxamide], which IC50 is on record?
**A.** The IC50 was under 2000 nM.

**Q.** Which IC50 does the source give for CC(C)[C@H](CO)NC(=O)c1cn2c(C(=O)NCC34CC5CC(CC(C5)C3)C4)cccc2n1 [Compound 85, 5-N-(adamantan-1-ylmethyl)--[(1R)-1-(hydroxymethyl)-2-methyl-propyl]imidazo[1,2-a]pyridine-2,5-dicarboxamide] here?
**A.** Its IC50 is under 2000 nM.

**Q.** For CC(O)CNC(=O)c1cn2c(C(=O)NCC34CC5CC(CC(C5)C3)C4)cccc2n1 (stereo not shown) [Compound 86, 5-N-(adamantan-1-ylmethyl)--(2-hydroxy-propyl)imidazo[1,2-a]pyridine-2,5-dicarboxamide], which IC50 is on record?
**A.** Its IC50 is under 2000 nM.

**Q.** Which IC50 does the source give for CN1CCN(C(=O)c2cn3c(C(=O)NCC45CC6CC(CC(C6)C4)C5)cccc3n2)CC1 [Compound 89, N-(adamantan-1-ylmethyl)-2-[(4-methylpiperazin-1-yl)carbonyl]imidazo[1,2-a]pyridine-5-carboxamide] here?
**A.** Its IC50 is under 2000 nM.

**Q.** For CN(C(=O)c1cn2c(C(=O)NCC34CC5CC(CC(C5)C3)C4)cccc2n1)C1CCOC1 (stereo not shown) [Compound 90, 5-N-(adamantan-1-ylmethyl)--methyl-- (tetrahydrofuran-3-yl)imidazo[1,2-a]pyridine-2,5-dicarboxamide], which IC50 is on record?
**A.** Its IC50 is under 2000 nM.

**Q.** CN(C)CCN(C)C(=O)c1cn2c(C(=O)NCC34CC5CC(CC(C5)C3)C4)cccc2n1 [Compound 91, 5-N-(adamantan-1-ylmethyl)--[2-(dimethylamino)ethyl]-- methylimidazo[1,2-a]pyridine-2,5-dicarboxamide] was tested. Which IC50 did it give?
**A.** Its IC50 is under 2000 nM.

**Q.** How did the IC50 turn out when CN1CCC(N(C)C(=O)c2cn3c(C(=O)NCC45CC6CC(CC(C6)C4)C5)cccc3n2)C1 (stereo not shown) [Compound 92, 5-N-(adamantan-1-ylmethyl)--methyl--(1-methylpyrrolidin-3-yl)imidazo[1,2-a]pyridine-2,5-dicarboxamide] was run?
**A.** The IC50 was under 2000 nM.

**Q.** For CN(C)C1CCN(C(=O)c2cn3c(C(=O)NCC45CC6CC(CC(C6)C4)C5)cccc3n2)C1 (stereo not shown) [Compound 93, N-(adamantan-1-ylmethyl)-2-{[3-(dimethyl-amino)pyrrolidin-1-yl]carbonyl}imidazo[1,2-a]pyridine-5-carboxamide], which IC50 is on record?
**A.** Its IC50 is under 2000 nM.

**Q.** Which IC50 does the source give for COCCN1CCN(C(=O)c2cn3c(C(=O)NCC45CC6CC(CC(C6)C4)C5)cccc3n2)CC1 [Compound 94, N-(adamantan-1-ylmethyl)-2-{[4-(2-methoxyethyl)piperazin-1-yl]carbonyl}imidazo[1,2-a]pyridine-5-carboxamide] here?
**A.** Its IC50 is under 2000 nM.

**Q.** How did the IC50 turn out when COC1CCN(C(=O)c2cn3c(C(=O)NCC45CC6CC(CC(C6)C4)C5)cccc3n2)CC1 [Compound 95, N-(adamantan-1-ylmethyl)-2-[(4-methoxypiperidin-1-yl)carbonyl]imidazo[1,2-a]pyridine-5-carboxamide] was run?
**A.** Its IC50 is under 2000 nM.

**Q.** With CS(=O)(=O)C1CCN(C(=O)c2cn3c(C(=O)NCC45CC6CC(CC(C6)C4)C5)cccc3n2)CC1 [Compound 96, N-(adamantan-1-ylmethyl)-2-{[4-(methyl-sulfonyl)piperidin-1-yl]carbonyl}imidazo[1,2-a]pyridine-5-carboxamide] as the molecule, how does the IC50 read?
**A.** The IC50 was under 2000 nM.

**Q.** How did the IC50 turn out when CS(=O)(=O)N1CCN(C(=O)c2cn3c(C(=O)NCC45CC6CC(CC(C6)C4)C5)cccc3n2)CC1 [Compound 97, N-(adamantan-1-ylmethyl)-2-{[4-(methyl-sulfonyl)piperazin-1-yl]carbonyl}imidazo[1,2-a]pyridine-5-carboxamide] was run?
**A.** Its IC50 is under 2000 nM.

**Q.** CN(CCNS(C)(=O)=O)C(=O)c1cn2c(C(=O)NCC34CC5CC(CC(C5)C3)C4)cccc2n1 [Compound 98, 5-N-(adamantan-1-ylmethyl)--methyl--{2-[(methyl-sulfonyl)amino]eth-yl)imidazo[1,2-a]pyridine-2,5-dicarboxamide] was tested. Which IC50 did it give?
**A.** Its IC50 is under 2000 nM.

**Q.** For O=C1CN(C(=O)c2cn3c(C(=O)NCC45CC6CC(CC(C6)C4)C5)cccc3n2)CCN1 [Compound 99, N-(adamantan-1-ylmethyl)-2-[(3-oxopiperazin-1-yl)carbonyl]imidazo[1,2-a]pyridine-5-carboxamide], which IC50 is on record?
**A.** Its IC50 is under 2000 nM.

**Q.** With COC1CCCN(C(=O)c2cn3c(C(=O)NCC45CC6CC(CC(C6)C4)C5)cccc3n2)C1 (stereo not shown) [Compound 100, N-(adamantan-1-ylmethyl)-2-[(3-methoxypiperidin-1-yl)carbonyl]imidazo[1,2-a]pyridine-5-carboxamide] as the molecule, how does the IC50 read?
**A.** Its IC50 is under 2000 nM.

**Q.** For O=C(NCC12CC3CC(CC(C3)C1)C2)c1cccc2nc(C(=O)N3CCC(N4CCOCC4)CC3)cn12 [Compound 101, N-(adamantan-1-ylmethyl)-2-[(4-morpholin-4-ylpiperidin-1-yl)carbonyl]imidazo[1,2-a]pyridine-5-carboxamide], which IC50 is on record?
**A.** The IC50 was under 2000 nM.

**Q.** Which IC50 does the source give for NC(=O)C1CCN(C(=O)c2cn3c(C(=O)NCC45CC6CC(CC(C6)C4)C5)cccc3n2)CC1 [Compound 102, N-(adamantan-1-ylmethyl)-2-[(4-carbamoylpiperidin-1-yl)carbonyl]imidazo[1,2-a]pyridine-5-carboxamide] here?
**A.** Its IC50 is under 2000 nM.

**Q.** How did the IC50 turn out when NC(=O)C1CCCN(C(=O)c2cn3c(C(=O)NCC45CC6CC(CC(C6)C4)C5)cccc3n2)C1 (stereo not shown) [Compound 103, N-(adamantan-1-ylmethyl)-2-[(3-carbamoylpiperidin-1-yl)carbonyl]imidazo[1,2-a]pyridine-5-carboxamide] was run?
**A.** The IC50 was under 2000 nM.

**Q.** For O=C(NCC12CC3CC(CC(C3)C1)C2)c1cccc2nc(C(=O)N3CCCC(O)C3)cn12 (stereo not shown) [Compound 105, N-(adamantan-1-ylmethyl)-2-[(3-hydroxypiperidin-1-yl)carbonyl]imidazo[1,2-a]pyridine-5-carboxamide], which IC50 is on record?
**A.** Its IC50 is under 2000 nM.

**Q.** How did the IC50 turn out when O=C(NCC12CC3CC(CC(C3)C1)C2)c1cccc2nc(C(=O)N3CCC(O)CC3)cn12 [Compound 106, N-(adamantan-1-ylmethyl)-2-[(4-hydroxypiperidin-1-yl)carbonyl]imidazo[1,2-a]pyridine-5-carboxamide] was run?
**A.** The IC50 was under 2000 nM.

**Q.** O=C(NCC12CC3CC(CC(C3)C1)C2)c1cccc2nc(C(=O)N3CC(O)C3)cn12 [Compound 107, N-(adamantan-1-ylmethyl)-2-[(3-hydroxyazetidin-1-yl)carbonyl]imidazo[1,2-a]pyridine-5-carboxamide] was tested. Which IC50 did it give?
**A.** Its IC50 is under 2000 nM.

**Q.** For CC1(O)CCN(C(=O)c2cn3c(C(=O)NCC45CC6CC(CC(C6)C4)C5)cccc3n2)CC1 [Compound 108, N-(adamantan-1-ylmethyl)-2-[(4-hydroxy-4-methylpiperidin-1-yl)carbonyl]imidazo[1,2-a]pyridine-5-carboxamide], which IC50 is on record?
**A.** The IC50 was under 2000 nM.

**Q.** Which IC50 does the source give for CC1(O)CCN(C(=O)c2cn3c(C(=O)NCC45CC6CC(CC(C6)C4)C5)cccc3n2)C1 (stereo not shown) [Compound 112, N-(adamantan-1-ylmethyl)-2-[(3-hydroxy-3-methylpyrrolidin-1-yl)carbonyl]imidazo[1,2-a]pyridine-5-carboxamide] here?
**A.** Its IC50 is under 2000 nM.

**Q.** C[C@@H]1CN(C(=O)Cc2cn3c(C(=O)NCC45CC6CC(CC(C6)C4)C5)cccc3n2)CCN1 [Compound 114, N-(adamantan-1-ylmethyl)-2-{2-[(3R)-3-methylpiperazin-1-yl]-2-oxoethyl}imidazo[1,2-a]pyridine-5-carboxamide] was tested. Which IC50 did it give?
**A.** The IC50 was under 2000 nM.

**Q.** With N[C@@H]1CCN(CCc2cn3c(C(=O)NCC45CC6CC(CC(C6)C4)C5)cccc3n2)C1 [Compound 115, 2-[2-((R)-3-amino-pyrrolidin-1-yl)-ethyl]-imidazo[1,2-a]pyridine-5-carboxylic acid (adamantan-1-ylmethyl)-amide] as the molecule, how does the IC50 read?
**A.** The IC50 was under 2000 nM.

**Q.** Which IC50 does the source give for O=C(NCC12CC3CC(CC(C3)C1)C2)c1cccc2nc(CCN3CCC(O)CC3)cn12 [Compound 116, 2-[2-(4-hydroxy-piperidin-1-yl)-ethyl]-imidazo[1,2-a]pyridine-5-carboxylic acid (adamantan-1-ylmethyl)-amide] here?
**A.** Its IC50 is under 2000 nM.

Reference: patent US8431593B2, “Heteroaryl amide derivatives” (H. Lundbeck A/S, priority 2006, dated 2013)
